Measurements from ChEMBL document CHEMBL1201862, “PubChem BioAssay data set” (2004).
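Exposure lasted 48 hours, with cells grown in 96-well plates and compounds tested at five concentrations. At the GI50, growth is halved.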 Calls of active or inactive are those of the source. No stated cut-off is given here; in the data, active = GI50 up to about 1.1 µM and inactive = higher.

Tests used:
Assay in all cases: DTP human tumour cell line panel, 48 h
[1] = test system: OVCAR-8
[2] = test system: SF-539
[3] = test system: UACC-257
[4] = test system: Malme-3M
[5] = test system: SK-MEL-5
[6] = test system: HOP-62
[7] = test system: HL-60
[8] = test system: HCT-116
[9] = test system: A549
[10] = test system: M14
[11] = test system: SW-620
[12] = test system: OVCAR-3
[13] = test system: MDA-MB-231
[14] = test system: BT-549
[15] = test system: CCRF-CEM
[16] = test system: OVCAR-4
[17] = test system: SNB-19
[18] = test system: MDA-MB-435
[19] = test system: HT-29
[20] = test system: SF-295
[21] = test system: MCF7
[22] = test system: T47D
[23] = test system: SN12C
[24] = test system: IGROV-1
[25] = test system: Hs-578T
[26] = test system: HCT-15
[27] = test system: RPMI-8226
[28] = test system: 786-0
[29] = test system: SF-268
[30] = test system: MOLT-4
[31] = test system: UACC-62
[32] = test system: NCI-H522
[33] = test system: CAKI-1
[34] = test system: SK-OV-3
[35] = test system: TK-10
[36] = test system: NCI/ADR-RES
[37] = test system: COLO 205
[38] = test system: LOX IMVI
[39] = test system: SR
[40] = test system: SK-MEL-28
[41] = test system: KM12
[42] = test system: PC-3
[43] = test system: K562
[44] = test system: OVCAR-5
[45] = test system: U-251
[46] = test system: HCC 2998
[47] = test system: SNB-75
[48] = test system: MDA-N
[49] = test system: NCI-H23
[50] = test system: ACHN
[51] = test system: DU-145
[52] = test system: HOP-92
[53] = test system: A498
[54] = test system: UO-31
[55] = test system: NCI-H460
[56] = test system: EKVX
[57] = test system: NCI-H226
[58] = test system: RXF 393
[59] = test system: SK-MEL-2

`Cc1ccc(C(=O)/C=C2\Nc3ccccc3S\C2=N\CS(=O)(=O)c2ccc(C)cc2)cc1` was tested, and the GI50 [1] was > 10 µM (inactive), the GI50 [2] was > 10 µM (inactive) and the GI50 [3] was > 10 µM (inactive). The GI50 [4] was > 10 µM (inactive), the GI50 [5] was > 10 µM (inactive) and the GI50 [6] was 7.8 µM (inactive). The GI50 [7] was 7.41 µM (inactive), the GI50 [8] was > 10 µM (inactive) and the GI50 [9] was > 10 µM (inactive). For the same molecule, the GI50 [10] was > 10 µM (inactive), the GI50 [11] was > 10 µM (inactive) and the GI50 [12] was 4.33 µM (inactive). The GI50 [13] was > 10 µM (inactive), the GI50 [14] was > 10 µM (inactive) and the GI50 [15] was > 10 µM (inactive). The GI50 [16] was 4.02 µM (inactive), the GI50 [17] was > 10 µM (inactive) and the GI50 [18] was > 10 µM (inactive). The GI50 [19] was > 10 µM (inactive), the GI50 [20] was > 10 µM (inactive) and the GI50 [21] was 4.3 µM (inactive). For the same molecule, the GI50 [22] was 8.2 µM (inactive), the GI50 [23] was > 10 µM (inactive) and the GI50 [24] was > 10 µM (inactive). For the same molecule, the GI50 [25] was 8.43 µM (inactive), the GI50 [26] was greater than 10 µM and the GI50 [27] was > 10 µM (inactive). The GI50 [28] was > 10 µM (inactive), the GI50 [29] was > 10 µM (inactive) and the GI50 [30] was > 10 µM (inactive). The GI50 [31] was > 10 µM (inactive), the GI50 [32] was 5.38 µM (inactive) and the GI50 [33] was > 10 µM (inactive). The GI50 [34] was 6.89 µM (inactive), the GI50 [35] was > 10 µM (inactive) and the GI50 [36] was > 10 µM (inactive). The GI50 [37] was > 10 µM (inactive), the GI50 [38] was > 10 µM (inactive) and the GI50 [39] was > 10 µM (inactive). The GI50 [40] was > 10 µM (inactive), the GI50 [41] was > 10 µM (inactive) and the GI50 [42] was > 10 µM (inactive). The GI50 [43] was > 10 µM (inactive), the GI50 [44] was > 10 µM (inactive) and the GI50 [45] was > 10 µM (inactive). For the same molecule, the GI50 [46] was > 10 µM (inactive), the GI50 [47] was > 10 µM (inactive) and the GI50 [48] was > 10 µM (inactive). For the same molecule, the GI50 [49] was > 10 µM (inactive), the GI50 [50] was > 10 µM (inactive) and the GI50 [51] was > 10 µM (inactive). For the same molecule, the GI50 [52] was > 10 µM (inactive).

For `COc1ccc(C2=NN(C(=O)c3ccccc3)C(O)(c3cc(F)c(Cl)cc3Cl)C2)cc1OC` (stereo unspecified), the GI50 [1] was 48.4 µM (inactive), the GI50 [2] was 43.1 µM (inactive) and the GI50 [3] was 60.4 µM (inactive). For the same molecule, the GI50 [4] was 57.9 µM (inactive), the GI50 [5] was > 100 µM (inactive) and the GI50 [53] was 32.1 µM (inactive). For the same molecule, the GI50 [6] was 17.2 µM (inactive), the GI50 [7] was > 100 µM (inactive) and the GI50 [8] was 50 µM (inactive). For the same molecule, the GI50 [9] was 93.8 µM (inactive), the GI50 [10] was 73.6 µM (inactive) and the GI50 [11] was > 100 µM (inactive). For the same molecule, the GI50 [12] was 20.4 µM (inactive), the GI50 [54] was 30.9 µM (inactive) and the GI50 [13] was 42.2 µM (inactive). For the same molecule, the GI50 [14] was > 100 µM (inactive), the GI50 [55] was 83.2 µM (inactive) and the GI50 [15] was > 100 µM (inactive). The GI50 [16] was 18.5 µM (inactive), the GI50 [56] was 32.7 µM (inactive) and the GI50 [17] was 36.5 µM (inactive). For the same molecule, the GI50 [18] was 31.8 µM (inactive), the GI50 [57] was > 100 µM (inactive) and the GI50 [19] was 23.5 µM (inactive). For the same molecule, the GI50 [20] was 29.5 µM (inactive), the GI50 [21] was 32.1 µM (inactive) and the GI50 [22] was 50.8 µM (inactive). The GI50 [58] was 18.9 µM (inactive), the GI50 [23] was 94.4 µM (inactive) and the GI50 [24] was 40.1 µM (inactive). For the same molecule, the GI50 [25] was 34.5 µM (inactive), the GI50 [26] was greater than 100 µM and the GI50 [27] was 38 µM (inactive). For the same molecule, the GI50 [28] was 30.3 µM (inactive), the GI50 [29] was 55.5 µM (inactive) and the GI50 [30] was 8.61 µM (inactive). The GI50 [31] was 45.6 µM (inactive), the GI50 [32] was 56.1 µM (inactive) and the GI50 [33] was 27.5 µM (inactive). The GI50 [34] was 20.9 µM (inactive), the GI50 [35] was 35.9 µM (inactive) and the GI50 [36] was 62.1 µM (inactive). The GI50 [37] was > 100 µM (inactive), the GI50 [38] was 97.1 µM (inactive) and the GI50 [40] was 49.8 µM (inactive). For the same molecule, the GI50 [41] was > 100 µM (inactive), the GI50 [42] was 31.3 µM (inactive) and the GI50 [43] was > 100 µM (inactive). The GI50 [59] was 29 µM (inactive), the GI50 [44] was 71.3 µM (inactive) and the GI50 [45] was 32.4 µM (inactive). For the same molecule, the GI50 [46] was 30.9 µM (inactive), the GI50 [48] was 57.5 µM (inactive) and the GI50 [49] was 42.3 µM (inactive). For the same molecule, the GI50 [50] was 32.5 µM (inactive), the GI50 [51] was 39 µM (inactive) and the GI50 [52] was 21.4 µM (inactive).

In the case of `CCOC(=O)C(Cc1ccc(OC(=O)c2ccc(OC)cc2)cc1)NC(=O)C(F)(F)F` (stereo unspecified), the GI50 [1] was > 100 µM (inactive), the GI50 [2] was > 100 µM (inactive) and the GI50 [3] was > 100 µM (inactive). The GI50 [4] was > 100 µM (inactive), the GI50 [5] was > 100 µM (inactive) and the GI50 [53] was > 100 µM (inactive). The GI50 [6] was 35.5 µM (inactive), the GI50 [7] was > 100 µM (inactive) and the GI50 [8] was > 100 µM (inactive). For the same molecule, the GI50 [9] was > 100 µM (inactive), the GI50 [10] was > 100 µM (inactive) and the GI50 [11] was > 100 µM (inactive). The GI50 [12] was > 100 µM (inactive), the GI50 [54] was > 100 µM (inactive) and the GI50 [13] was 77.6 µM (inactive). For the same molecule, the GI50 [14] was > 100 µM (inactive), the GI50 [55] was > 100 µM (inactive) and the GI50 [15] was 39.5 µM (inactive). The GI50 [16] was 87.7 µM (inactive), the GI50 [56] was > 100 µM (inactive) and the GI50 [17] was > 100 µM (inactive). For the same molecule, the GI50 [18] was > 100 µM (inactive), the GI50 [57] was > 100 µM (inactive) and the GI50 [19] was > 100 µM (inactive). The GI50 [20] was 80.7 µM (inactive), the GI50 [21] was > 100 µM (inactive) and the GI50 [22] was > 100 µM (inactive). For the same molecule, the GI50 [58] was 27.9 µM (inactive), the GI50 [23] was > 100 µM (inactive) and the GI50 [24] was 45.3 µM (inactive). For the same molecule, the GI50 [25] was > 100 µM (inactive), the GI50 [26] was greater than 100 µM and the GI50 [27] was > 100 µM (inactive). For the same molecule, the GI50 [28] was > 100 µM (inactive), the GI50 [29] was 35.6 µM (inactive) and the GI50 [30] was > 100 µM (inactive). The GI50 [31] was > 100 µM (inactive), the GI50 [32] was > 100 µM (inactive) and the GI50 [33] was > 100 µM (inactive). The GI50 [34] was > 100 µM (inactive), the GI50 [35] was > 100 µM (inactive) and the GI50 [36] was > 100 µM (inactive). The GI50 [37] was > 100 µM (inactive), the GI50 [38] was > 100 µM (inactive) and the GI50 [41] was > 100 µM (inactive). The GI50 [42] was > 100 µM (inactive), the GI50 [43] was > 100 µM (inactive) and the GI50 [59] was > 100 µM (inactive). The GI50 [44] was > 100 µM (inactive), the GI50 [45] was 69.3 µM (inactive) and the GI50 [46] was > 100 µM (inactive). For the same molecule, the GI50 [47] was 20.7 µM (inactive), the GI50 [48] was > 100 µM (inactive) and the GI50 [49] was 45.2 µM (inactive). For the same molecule, the GI50 [50] was 53.6 µM (inactive), the GI50 [51] was > 100 µM (inactive) and the GI50 [52] was 45.8 µM (inactive).
